From US20090068207A1, “Compositions Containing Beta 2-Glycoprotein I-Derived Peptides for the Prevention and/or Treatment of Vascular Disease” (Vascular Biogenics Ltd., priority 2005, published 2009)
Where “and” joins values, the source holds several entries; their conditions need not be identical. Identical values can stand only once.

Columns and labels:
[1] = tested on: LDL-RD mice; assay: Aortic sinus lesion area after oral administration, Western diet; format: in vivo; conditions: for Aortic sinus lesion (μm^2): End, oral 100 μg, mean ± S.E
Protocol: Oral Tolerance: For comparison, oral tolerance to plaque-associated molecules was induced by feeding […] of antigen every other day (for a detailed account of induction of oral tolerance, see U.S. patent application Ser. No. 09/806,400 to Shoenfeld et al filed Sep. 30, 1999), in a similar regimen to the nasal tolerance. LDL-RD mice were fed by a nasogastric tube, five doses (every other day) of human or bovine β2GPI in PBS in two different concentrations (500 and 50 μg/dose).
Oral tolerance to β2GPI-derived peptides, alone or in combination was induced by feeding 100 μg of the peptides (prepared in PBS, 0.2 ml), as detailed hereinabove, every other day for a total of 5 doses of 100 μg. One day following the last feeding, all mice were switched from chow-diet to an atherogenic “Western” diet and sacrificed five weeks later.
(§1) Assessment of Atherosclerosis: Quantification of atherosclerotic fatty streak lesions was done by calculating the lesion size in the aortic sinus as previously described (16) and by calculating the lesion size in the aorta. Briefly, after perfusion with saline Tris EDTA, the heart and the aorta were removed from the animals and the peripheral fat cleaned carefully. The upper section of the heart was embedded in OCT medium (10.24% w/w polyvinyl alcohol; 4.26% w/w polyethylene glycol; 85.50% w/w nonreactive ingredients) and frozen. Every other section (10 μm thick) throughout the aortic sinus (400 μm) was taken for analysis. The distal portion of the aortic sinus was recognized by the three valve cusps that are the junctions of the aorta to the heart. […] Lesion areas per section were scored on a grid (17) by an observer counting unidentified, numbered specimens. The aorta was dissected from the heart and surrounding adventitious tissue was removed. Fixation of the aorta and Sudan staining of the vessels were performed as previously described (21).
LDL-receptor deficient (LDL-RD; LDLR −/−) mice created on a C57BL/6 background develop accelerated atherosclerosis when fed a high cholesterol diet, but not when fed a regular chow diet. In order to determine whether mucosal administration of the plaque antigen β2GPI could suppress atherogenic processes, LDL-RD mice were fed low, oral tolerance inducing doses of human and bovine β2GPI, and the assessed for alterations in response to diet.

[2] = tested on: lymph node cells; assay: Lymph node cell proliferation (stimulation index) to oxLDL after oral administration; format: in vivo, mice; conditions: oral, LDL-RD mice immunized with OxLDL; for effect on Stimulation Index of sensitized lymph node cells in response to OxLDL / Stimulation index / reduction in Stimulation Index of OxLDL-sensitized lymph node cells: 3 doses of 100 μg; for Stimulation index: OxLDL challenge, mean ± S.E.
Protocol: Proliferation was measured by the incorporation of [^3H] thymidine into DNA during the final 12 h of incubation. The results were computed as stimulation index: the ratio of the mean cpm of the antigen to the mean background cpm obtained in the absence of the antigen.
[…] Three days after the final administration of peptides, the mice were immunized with OxLDL in incomplete Freund's adjuvant, as described in the Examples above, and lymph node cells assessed for antigen (OxLDL) stimulation of proliferation 10 days later. Proliferation was assessed by incorporation of thymidine, expressed as the Stimulation Index, as described.

[3] = tested on: LDL-RD mice; assay: Aortic sinus lesion area after intraperitoneal immunization with incomplete Freund's adjuvant; format: in vivo; conditions: for Aortic sinus lesion (μm^2): End, intraperitoneal with incomplete Freund's adjuvant, head 100 μg, mean ± S.E
Protocol: Intraperitoneal immunization with human β2GPI-derived peptides: human β2GPI-derived peptides were dissolved in PBS and mixed with equal volumes of Freund's incomplete adjuvant. […] One week following the last immunization, the diet was switched from chow to atherogenic “Western” diet for five weeks, and then the mice were sacrificed.
as §1
Immunization with Human β2GPI-derived peptides mildly attenuates the early atherogenesis in LDL RD mice: In order to compare the effects of different modes of administration of human β2GPI-derived peptides on atherosclerosis, human β2GPI-derived peptides and human β2GPI were administered intraperitoneally (IP) with incomplete Freund's adjuvant, in LDL RD mice, effectively immunizing the mice, as opposed to the tolerance effected by mucosal administration.
Data presented in FIG. 11, and Table 7, clearly indicates a non-specific inhibitory effect of immunization (see PBS vs Non-immunized) on the size of the aortic sinus lesions in the susceptible LDL RD mice. On an average, immunization with the human β2GPI-derived peptides was equally, if not more, effective in inhibiting atherogenesis as immunization with human β2GPI, or with PBS prepared in incomplete Freund's adjuvant. In contrast to the protection achieved with mucosal administration, the different peptides S-1, S-2, S-3 and S-4 provided widely divergent, and diminished (34% or less) degrees of protection, as compared with controls.

[4] = tested on: LDL-RD mice; assay: Aortic sinus lesion area after nasal tolerance induction, Western diet; format: in vivo
Protocol: Nasal Tolerance: Nasal tolerance was induced by intranasal administration of oxidized LDL, β2GPI, β2GPI-derived peptides or HSP65, in a total volume of 10 μl PBS. Intranasal administration was performed on mildly sedated mice (12-16 weeks old), each mouse receiving 3 doses of antigen per dose, in the indicated concentrations, every other day. Atherogenesis was induced by 5 weeks of a Western diet initiated on the day following the last intranasal administration, or assessed (in Apo E KO mice) after 8 weeks on a chow diet. Controls received equal amounts of BSA and/or PBS, as indicated, in an identical regimen. Plasma was obtained for assessment of cholesterol and triglyceride levels from all mice, and the mice were sacrificed for evaluation of atherosclerosis, as described hereinbelow, after 5 weeks Western diet, or (in Apo E KO mice) after 8 weeks on a chow diet.
Assessment of Atherosclerosis: Quantification of atherosclerotic fatty streak lesions was done by calculating the lesion size in the aortic sinus as previously described (16) and by calculating the lesion size in the aorta. Briefly, after perfusion with saline Tris EDTA, the heart and the aorta were removed from the animals and the peripheral fat cleaned carefully. The upper section of the heart was embedded in OCT medium (10.24% w/w polyvinyl alcohol; 4.26% w/w polyethylene glycol; 85.50% w/w nonreactive ingredients) and frozen. Every other section (10 μm thick) throughout the aortic sinus (400 μm) was taken for analysis. The distal portion of the aortic sinus was recognized by the three valve cusps that are the junctions of the aorta to the heart. Sections were evaluated for fatty streak lesions after processing and staining with oil-red O, according to Paigen et al (Atherosclerosis, 1987; 68:231-40). Lesion areas per section were scored on a grid (17) by an observer counting unidentified, numbered specimens. The aorta was dissected from the heart and surrounding adventitious tissue was removed. Fixation of the aorta and Sudan staining of the vessels were performed as previously described (21).
Mice were bled prior to feeding (Time 0) and at the conclusion of the experiment (End) for determination of lipid profile. Atherosclerosis was assessed in heart and aorta as described above, 8 weeks after the last feeding. Mice were weighed every 2 weeks during the experiment. All mice were fed water ad libitum and a normal chow-diet containing 4.5% fat by weight (0.02% cholesterol), up to the final antigen exposure, and then a “Western” diet until sacrifice.
Thus, nasal exposure to a low dose and an exceedingly low dose of recombinant human HSP 65 were compared for their effectiveness in suppressing atherogenesis in LDL-RD mice. 58 male 12-16 week old LDL-RD mice were divided into 4 groups.

[5] = tested on: ApoE-KO mice; assay: Aortic sinus lesion area after oral administration in ApoE-KO mice; format: in vivo; conditions: oral 50 μg, 5 doses
Source text: as §1, with “Fixation of the aorta and Sudan staining of the vessels were performed as previously described (21).” left out
In order to determine the protective effect of mucosal administration of β2GPI on development of atherosclerosis, adult ApoE-KO mice were treated with oral administration of human β2GPI. […] Lesion area calculated from cryosections of the aortic sinus were compared between control untreated 20 week old mice, and mice following 16 weeks oral administration of β2GPI or PBS. […]

[6] = tested on: ApoE-KO mice; assay: Aortic sinus lesion area after nasal administration in ApoE-KO mice; format: in vivo; conditions: End, nasal 10 μg/mouse, mean ± S.E
Protocol: Nasal Tolerance: Nasal tolerance was induced by intranasal administration of oxidized LDL, β2GPI, β2GPI-derived peptides or HSP65, in a total volume of 10 μl PBS. Intranasal administration was performed on mildly sedated mice (12-16 weeks old), each mouse receiving […] of antigen per dose, in the indicated concentrations, every other day. Atherogenesis was induced by 5 weeks of a Western diet initiated on the day following the last intranasal administration, or assessed (in Apo E KO mice) after 8 weeks on a chow diet. Controls received equal amounts of BSA and/or PBS, as indicated, in an identical regimen. Plasma was obtained for assessment of cholesterol and triglyceride levels from all mice, and the mice were sacrificed for evaluation of atherosclerosis, as described hereinbelow, after 5 weeks Western diet, or (in Apo E KO mice) after 8 weeks on a chow diet.
Assessment of Atherosclerosis: Quantification of atherosclerotic fatty streak lesions was done by calculating the lesion size in the aortic sinus as previously described (16) and by calculating the lesion size in the aorta. Briefly, after perfusion with saline Tris EDTA, the heart and the aorta were removed from the animals and the peripheral fat cleaned carefully. […] Lesion areas per section were scored on a grid (17) by an observer counting unidentified, numbered specimens. […]

Substance	Aortic sinus lesion (μm^2) [1] [μm^2]	effect on Stimulation Index of sensitized lymph node cells in response to OxLDL [2]	Stimulation index [2]	Aortic sinus lesion (μm^2) [3] [μm^2]	reduction in Stimulation Index of OxLDL-sensitized lymph node cells [2] [%]	further results
ECLPQHAMFGNDTITCTTHGN [Peptide S-2]	23636 ± 3857	mildly reduced	168 ± 72	24050 ± 7755	–	–
GDKVSFFCKNKE [Peptide S-4-4]	–	–	–	–	–	decrease of Stimulation Index as compared with PBS-treated controls ([2]; 5 doses of 100 μg, OxLDL stimulation): ~50% and ~60%
HSP-65: recombinant mycobacterial heat shock protein HSP 65	–	–	–	–	–	Aortic sinus lesion (μm^2) ([4]; END, intranasal 10 μg/mouse every other day for 5 days, then Western diet, mean ± S.E): 44375 ± 5437 μm^2; protection from atherogenesis ([4]; nasal, exceedingly low doses (1 μg/mouse)): approximately 70%
MLHGDKVSFFCKNKEKKCSYT [Peptide S-4]	21125 ± 2482	–	17 ± 10	23758 ± 5767	94	Aortic sinus lesion (μm^2) ([5]; End, ApoE-KO mice): 81923 ± 9191 μm^2; reduction of progression of atherosclerotic lesions compared to PBS controls ([5]; then 8 weeks of chow diet, 10-11 week-old ApoE-KO mice): > 50%; reduction of atherosclerosis (aortic sinus lesion size) as compared with BSA- and PBS-fed controls ([1]; oral 100 μg/dose, 5 doses, Western diet 5 weeks): 61%; Aortic sinus lesion (μm^2) [6]: 107953 ± 10158 μm^2
SCKVPVKKATVVYQGERVKIQ [Peptide S-3]	29269 ± 3307	–	20 ± 6	45329 ± 14667	93	anti-atherogenic effect as compared to PBS+IFA ([3]; intraperitoneal immunization): without any significant anti-atherogenic effect
VCPFAGILENGAVRYTTFEY [Peptide S-1]	26750 ± 4698	mildly reduced	246 ± 79	29968 ± 6032	–	–
